Test results from ChEMBL document CHEMBL5725512, “Fused bicyclic 1,2,4-triazine compounds as TAM inhibitors” (2017).

What was measured:
[1] = target: Tyrosine-protein kinase JAK1 (Homo sapiens, UniProt P23458); test: JAK1 Assay: As used herein, a selective JAK1 inhibitor is an inhibitor of JAK1 which is selective for JAK1 over JAK2, JAK3 and TYK2. In some embodiments, the compounds or salts are about 10-fold more selective for JAK1 over JAK2. In some embodiments, the compounds or salts are about 10-fold, about 15-fold, or about 20-fold more selective for JAK1 over JAK2 as calculated by measuring IC50 at 1 mM …
[2] = target: T1, Phosphatidylinositol 4,5-bisphosphate 3-kinase catalytic subunit delta isoform (Homo sapiens, UniProt O00329); test: PI3K Delta Assay: In some embodiments, the PI3Kδ inhibitor is selective. By ¿selective¿ is meant that the compound binds to or inhibits a kinase with greater affinity or potency, respectively, compared to at least one other kinase. In some embodiments, the PI3Kδ inhibitors are selective inhibitors of PI3Kδ (e.g., over PI3Kα, PI3Kβ and PI3Kγ). In some embodiments, selectivity can be at least about 2-fold, 5-fold, 10-fold, at least about 20-fold, at least about 50-fold, at least about 100-fold, at least about 200-fold, at least about 500-fold or at least about 1000-fold. Selectivity can be measured by methods routine in the art. In some embodiments, selectivity can be tested at the Km ATP concentration of each enzyme. In some embodiments, the selectivity of compounds described herein can be determined by cellular assays associated with particular PI3K kinase activity.
T1 sequence (O00329 whole entry): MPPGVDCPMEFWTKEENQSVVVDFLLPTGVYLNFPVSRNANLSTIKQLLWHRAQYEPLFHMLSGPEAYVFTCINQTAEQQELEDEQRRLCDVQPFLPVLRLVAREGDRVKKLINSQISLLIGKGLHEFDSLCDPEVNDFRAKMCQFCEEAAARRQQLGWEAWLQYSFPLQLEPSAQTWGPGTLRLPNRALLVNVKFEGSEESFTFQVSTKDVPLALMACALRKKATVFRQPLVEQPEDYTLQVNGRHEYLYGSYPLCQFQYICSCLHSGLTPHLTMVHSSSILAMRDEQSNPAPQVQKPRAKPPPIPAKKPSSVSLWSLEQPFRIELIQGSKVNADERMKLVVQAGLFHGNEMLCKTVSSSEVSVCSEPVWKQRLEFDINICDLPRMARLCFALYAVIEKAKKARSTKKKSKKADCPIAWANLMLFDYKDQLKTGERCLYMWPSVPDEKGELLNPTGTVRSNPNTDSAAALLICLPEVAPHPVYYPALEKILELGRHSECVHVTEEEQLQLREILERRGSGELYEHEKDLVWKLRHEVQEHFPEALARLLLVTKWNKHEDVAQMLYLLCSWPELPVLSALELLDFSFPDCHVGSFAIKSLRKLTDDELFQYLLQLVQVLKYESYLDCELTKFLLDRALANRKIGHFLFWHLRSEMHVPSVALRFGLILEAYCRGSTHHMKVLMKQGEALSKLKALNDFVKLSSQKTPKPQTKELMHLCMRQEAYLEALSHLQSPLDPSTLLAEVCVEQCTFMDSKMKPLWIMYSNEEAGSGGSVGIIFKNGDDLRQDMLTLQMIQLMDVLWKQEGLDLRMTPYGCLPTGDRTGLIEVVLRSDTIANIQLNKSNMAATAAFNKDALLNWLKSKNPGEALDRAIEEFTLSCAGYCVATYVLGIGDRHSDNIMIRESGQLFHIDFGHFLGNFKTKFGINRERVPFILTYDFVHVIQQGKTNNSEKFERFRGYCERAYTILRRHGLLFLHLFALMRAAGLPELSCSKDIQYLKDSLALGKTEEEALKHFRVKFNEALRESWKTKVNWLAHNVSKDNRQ

Chain of Tyrosine-protein kinase JAK1 (P23458 whole entry, canonical isoform): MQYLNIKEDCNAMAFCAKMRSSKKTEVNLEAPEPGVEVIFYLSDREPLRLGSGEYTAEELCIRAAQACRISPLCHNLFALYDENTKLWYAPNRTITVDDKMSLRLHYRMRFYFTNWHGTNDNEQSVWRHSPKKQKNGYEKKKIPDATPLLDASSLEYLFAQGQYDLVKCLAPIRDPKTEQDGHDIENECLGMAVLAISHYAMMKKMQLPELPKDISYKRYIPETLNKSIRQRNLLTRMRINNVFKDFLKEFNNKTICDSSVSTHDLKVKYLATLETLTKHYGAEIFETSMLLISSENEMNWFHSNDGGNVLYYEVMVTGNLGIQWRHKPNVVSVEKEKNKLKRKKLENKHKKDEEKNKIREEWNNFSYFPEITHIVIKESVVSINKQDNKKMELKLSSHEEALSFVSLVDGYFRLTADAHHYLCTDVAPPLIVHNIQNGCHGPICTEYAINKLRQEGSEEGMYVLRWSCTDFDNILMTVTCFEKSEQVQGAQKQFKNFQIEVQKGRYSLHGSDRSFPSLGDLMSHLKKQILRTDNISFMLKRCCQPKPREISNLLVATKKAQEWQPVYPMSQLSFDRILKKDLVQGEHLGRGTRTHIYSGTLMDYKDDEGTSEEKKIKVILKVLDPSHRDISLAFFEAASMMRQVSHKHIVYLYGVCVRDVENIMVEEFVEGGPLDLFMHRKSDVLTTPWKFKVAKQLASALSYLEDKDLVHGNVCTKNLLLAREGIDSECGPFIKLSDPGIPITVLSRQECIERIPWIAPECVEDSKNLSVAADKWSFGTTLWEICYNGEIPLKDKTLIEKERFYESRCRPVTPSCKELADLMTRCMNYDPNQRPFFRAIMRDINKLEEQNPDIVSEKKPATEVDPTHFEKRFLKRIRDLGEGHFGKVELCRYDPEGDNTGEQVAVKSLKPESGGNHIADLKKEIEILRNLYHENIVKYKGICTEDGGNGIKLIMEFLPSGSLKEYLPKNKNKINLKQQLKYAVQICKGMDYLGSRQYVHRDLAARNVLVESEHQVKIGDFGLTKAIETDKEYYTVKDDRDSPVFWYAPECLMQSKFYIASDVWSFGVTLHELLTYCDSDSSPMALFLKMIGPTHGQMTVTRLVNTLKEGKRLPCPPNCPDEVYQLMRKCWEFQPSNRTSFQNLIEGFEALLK

| SMILES | IC50 [1] | IC50 [2] |
| --- | --- | --- |
| C[C@@H](O)c1nc2cnc3ccsc3c2n1[C@H]1CC[C@H](CC#N)OC1 | < 0.1 µM |  |
| N#CCC(CN1CCN(C(=O)c2ccc(C#N)cc2F)CC1)n1ccc(-c2ncnc3[nH]ccc23)c1 (stereo unspecified) | < 0.01 µM |  |
| CCNCc1cc(O[C@H]2CC[C@@H](N3CC(CC#N)(n4cc(-c5ncnc6[nH]ccc56)cn4)C3)CC2)nc(C(F)(F)F)c1 | < 0.01 µM |  |
| CC(C)(O)c1cc(O[C@H]2CC[C@@H](N3CC(CC#N)(n4cc(-c5ncnc6[nH]ccc56)cn4)C3)CC2)nc(C(F)(F)F)c1 | < 0.01 µM |  |
| N#CC[C@]1(n2cc(-c3ncnc4[nH]ccc34)cn2)C[C@H](N2CCC(Oc3cc(CN4CCC[C@H]4CO)cc(C(F)(F)F)n3)CC2)C1 | < 0.01 µM |  |
| N#CCC1(n2cc(-c3ncnc4[nH]ccc34)cn2)CN(C2CCN(C(=O)c3ccnc(C(F)(F)F)c3F)CC2)C1 [ITACITINIB] | < 0.01 µM |  |
| N#CCC(C1CCN(c2cccc(Cl)n2)C1)n1cc(-c2ncnc3[nH]ccc23)cn1 (single isomer, unassigned) | < 0.01 µM |  |
| CCOc1c(C(C)n2nc(C)c3c(N)ncnc32)cc(C)c(C#N)c1-c1ccc(C(=O)N(C)C)nc1 (stereo unspecified) |  | < 0.05 µM |
| C[C@@H](CO)NCc1cc(OC2CCN([C@H]3C[C@](CC#N)(n4cc(-c5ncnc6[nH]ccc56)cn4)C3)CC2)nc(C(F)(F)F)c1 | < 0.01 µM |  |
| N#CCC1(n2cc(-c3ncnc4[nH]ccc34)cn2)CN([C@H]2CC[C@@H](Oc3cc(CN4CC[C@@H](O)C4)cc(C(F)(F)F)n3)CC2)C1 | < 0.01 µM |  |
| N#CCC1(n2cc(-c3ncnc4[nH]ccc34)cn2)CN([C@H]2CC[C@@H](Oc3cc(CN4CC[C@H](O)C4)cc(C(F)(F)F)n3)CC2)C1 (single isomer, unassigned) | < 0.01 µM |  |

Now from value to compound, other results behind:

| IC50 [1] | SMILES | IC50 [2] |
| --- | --- | --- |
| < 0.01 µM | C[C@H](O)CNCc1cc(OC2CCN([C@H]3C[C@](CC#N)(n4cc(-c5ncnc6[nH]ccc56)cn4)C3)CC2)nc(C(F)(F)F)c1 |  |
| < 0.01 µM | C[C@H](NC(=O)c1cc(F)c(N2CC(CC#N)(n3cc(-c4ncnc5[nH]ccc45)cn3)C2)cc1F)C(F)(F)F |  |
| < 0.01 µM | N#CCC1(n2cc(-c3ncnc4[nH]ccc34)cn2)CN(C2CCN(C(=O)Nc3ccc(F)cc3C(F)(F)F)CC2)C1 |  |
| < 0.01 µM | N#CCC1(n2cc(-c3ncnc4[nH]ccc34)cn2)CN([C@H]2CC[C@@H](Oc3cc(CCO)nc(C(F)(F)F)n3)CC2)C1 |  |
| < 0.01 µM | N#CCC1(n2cc(-c3ncnc4[nH]ccc34)cn2)CN(C2CCN(C(=O)c3ccnc(C(F)(F)F)n3)CC2)C1 |  |
| < 0.01 µM | N#CC[C@]1(n2cc(-c3ncnc4[nH]ccc34)cn2)C[C@H](N2CCN(C(=O)c3ccnc(C(F)(F)F)n3)CC2)C1 |  |
| < 0.01 µM | N#CC[C@]1(n2cc(-c3ncnc4[nH]ccc34)cn2)C[C@H](N2CCC(Oc3cc(CN4CC(O)C4)cc(C(F)(F)F)n3)CC2)C1 |  |
| < 0.01 µM | N#CC[C@]1(n2cc(-c3ncnc4[nH]ccc34)cn2)C[C@H](N2CCC(Oc3cc(CCO)cc(C(F)(F)F)n3)CC2)C1 |  |
| < 0.01 µM | C[C@@H](O)CNCc1cc(OC2CCN([C@H]3C[C@](CC#N)(n4cc(-c5ncnc6[nH]ccc56)cn4)C3)CC2)nc(C(F)(F)F)c1 |  |
| < 0.01 µM | N#CCC(C1CCN(c2nc3cccnc3o2)C1)n1cc(-c2ncnc3[nH]ccc23)cn1 (stereo unspecified) |  |
